Data taken from ChEMBL document CHEMBL3885861, “Open TG-GATES”.

Species on record: Rattus norvegicus
Test: Open TG-GATES - Regimen: Single
Format: toxicity, organism-based, Sprague-Dawley
Design: regimen Single, gender Male, age 6 weeks
Conditions: in vivo, po, 300 mg/kg, route gavage, dose level Low; for APTT / Bas / Eos / Fbg / Hb / Ht / Lym / MCH / MCHC / MCV / Mono / Neu / PT / Plat / RBC / Ret / WBC: tissue Blood; for KIDNEY_L / KIDNEY_R / KIDNEY_TOTAL: tissue Kidney; for LIVER: tissue Liver; for A/G / ALP / ALT / AST / BUN / CRE / Ca / Cl / DBIL / GLC / IP / K / LDH / Na / PL / RALB / TBIL / TC / TG / TP / gamma-GTP: tissue Plasma

CC(=O)[C@@]1(O)CC[C@H]2[C@@H]3C=C(Cl)C4=CC(=O)CC[C@]4(C)[C@H]3CC[C@@]21C [CHLORMADINONE]
TERMINAL_BW (3 h): 219.9 g
APTT (3 h): 22.1 s
Bas (3 h): 0%
Eos (3 h): 1%
Fbg (3 h): 310.8 mg/dL
Hb (3 h): 13 g/dL
Ht (3 h): 40.3%
Lym (3 h): 75%
MCH (3 h): 20.5 pg
MCHC (3 h): 32.4%
MCV (3 h): 63.3 fL
Mono (3 h): 1.8%
Neu (3 h): 22.4%
PT (3 h): 15.2 s
Plat (3 h): 115.5 x10_4/uL
RBC (3 h): 637.8 x10_4/ul
Ret (3 h): 7.3%
WBC (3 h): 52.5 x10_2/uL
KIDNEY_L (3 h): 0.9 g
KIDNEY_R (3 h): 1 g
KIDNEY_TOTAL (3 h): 1.9 g
LIVER (3 h): 10.4 g
A/G (3 h): 1.3
ALP (3 h): 1442.2 IU/L
ALT (3 h): 48 IU/L
AST (3 h): 78.6 IU/L
BUN (3 h): 16 mg/dL
CRE (3 h): 0.2 mg/dL
Ca (3 h): 11 mg/dL
Cl (3 h): 105.4 meq/L
DBIL (3 h): 0 mg/dL
GLC (3 h): 181.4 mg/dL
IP (3 h): 9.3 mg/dL
K (3 h): 4.2 meq/L
LDH (3 h): 140.6 IU/L
Na (3 h): 143 meq/L
PL (3 h): 147.2 mg/dL
RALB (3 h): 3.1 g/dL
TBIL (3 h): 0.024 mg/dL
TC (3 h): 79.8 mg/dL
TG (3 h): 51.6 mg/dL
TP (3 h): 5.6 g/dL
gamma-GTP (3 h): 1.6 IU/L
TERMINAL_BW (6 h): 217.9 g
APTT (6 h): 24.4 s
Bas (6 h): 0%
Eos (6 h): 0.8%
Fbg (6 h): 317.6 mg/dL
Hb (6 h): 13.1 g/dL
Ht (6 h): 40.7%
Lym (6 h): 77.2%
MCH (6 h): 20.6 pg
MCHC (6 h): 32.3%
MCV (6 h): 63.8 fL
Mono (6 h): 1.8%
Neu (6 h): 20%
PT (6 h): 15.6 s
Plat (6 h): 106.2 x10_4/uL
RBC (6 h): 638.2 x10_4/ul
Ret (6 h): 7.9%
WBC (6 h): 68.9 x10_2/uL
KIDNEY_L (6 h): 1 g
KIDNEY_R (6 h): 1 g
KIDNEY_TOTAL (6 h): 2 g
LIVER (6 h): 10.3 g
A/G (6 h): 1.3
ALP (6 h): 1567.8 IU/L
ALT (6 h): 39.4 IU/L
AST (6 h): 72.8 IU/L
BUN (6 h): 12.6 mg/dL
CRE (6 h): 0.1 mg/dL
Ca (6 h): 10.5 mg/dL
Cl (6 h): 105.8 meq/L
DBIL (6 h): 0 mg/dL
GLC (6 h): 181.8 mg/dL
IP (6 h): 9.2 mg/dL
K (6 h): 4.4 meq/L
LDH (6 h): 159.6 IU/L
Na (6 h): 141.4 meq/L
PL (6 h): 134.8 mg/dL
RALB (6 h): 3.1 g/dL
TBIL (6 h): 0.032 mg/dL
TC (6 h): 80.8 mg/dL
TG (6 h): 35 mg/dL
TP (6 h): 5.6 g/dL
gamma-GTP (6 h): 1.8 IU/L
TERMINAL_BW (9 h): 219.9 g
APTT (9 h): 24.1 s
Bas (9 h): 0%
Eos (9 h): 0.2%
Fbg (9 h): 325.6 mg/dL
Hb (9 h): 13.2 g/dL
Ht (9 h): 41%
Lym (9 h): 79.4%
MCH (9 h): 20.2 pg
MCHC (9 h): 32%
MCV (9 h): 63.1 fL
Mono (9 h): 1%
Neu (9 h): 18.8%
PT (9 h): 15.6 s
Plat (9 h): 113.9 x10_4/uL
RBC (9 h): 651.2 x10_4/ul
Ret (9 h): 7.9%
WBC (9 h): 52.5 x10_2/uL
KIDNEY_L (9 h): 1 g
KIDNEY_R (9 h): 1 g
KIDNEY_TOTAL (9 h): 2 g
LIVER (9 h): 10.4 g
A/G (9 h): 1.3
ALP (9 h): 1458.4 IU/L
ALT (9 h): 39.4 IU/L
AST (9 h): 72 IU/L
BUN (9 h): 14.2 mg/dL
CRE (9 h): 0.1 mg/dL
Ca (9 h): 10.8 mg/dL
Cl (9 h): 105.4 meq/L
DBIL (9 h): 0 mg/dL
GLC (9 h): 201.8 mg/dL
IP (9 h): 8.9 mg/dL
K (9 h): 4.5 meq/L
LDH (9 h): 153.6 IU/L
Na (9 h): 140.6 meq/L
PL (9 h): 152 mg/dL
RALB (9 h): 3.2 g/dL
TBIL (9 h): 0.026 mg/dL
TC (9 h): 83 mg/dL
TG (9 h): 79 mg/dL
TP (9 h): 5.6 g/dL
gamma-GTP (9 h): 1.6 IU/L
TERMINAL_BW (24 h): 225.1 g
APTT (24 h): 25.2 s
Bas (24 h): 0%
Eos (24 h): 1.2%
Fbg (24 h): 336.2 mg/dL
Hb (24 h): 13.8 g/dL
Ht (24 h): 41.9%
Lym (24 h): 80.4%
MCH (24 h): 21.1 pg
MCHC (24 h): 32.9%
MCV (24 h): 64 fL
Mono (24 h): 2.4%
Neu (24 h): 15.2%
PT (24 h): 15.5 s
Plat (24 h): 121.2 x10_4/uL
RBC (24 h): 654.4 x10_4/ul
Ret (24 h): 7.7%
WBC (24 h): 124 x10_2/uL
KIDNEY_L (24 h): 1 g
KIDNEY_R (24 h): 1 g
KIDNEY_TOTAL (24 h): 2 g
LIVER (24 h): 11 g
A/G (24 h): 1.3
ALP (24 h): 1795.2 IU/L
ALT (24 h): 46.2 IU/L
AST (24 h): 73 IU/L
BUN (24 h): 18.8 mg/dL
CRE (24 h): 0.2 mg/dL
Ca (24 h): 10.6 mg/dL
Cl (24 h): 106.4 meq/L
DBIL (24 h): 0 mg/dL
GLC (24 h): 184 mg/dL
IP (24 h): 8.1 mg/dL
K (24 h): 4.5 meq/L
LDH (24 h): 204.8 IU/L
Na (24 h): 141 meq/L
PL (24 h): 169.2 mg/dL
RALB (24 h): 3.1 g/dL
TBIL (24 h): 0.004 mg/dL
TC (24 h): 83.8 mg/dL
TG (24 h): 175 mg/dL
TP (24 h): 5.6 g/dL
gamma-GTP (24 h): 2 IU/L
